Data taken from patent US9062124B2, “GIP-based mixed agonists for treatment of metabolic disorders and obesity” (priority 2008, dated 2015).
Where two headings read alike, the source gives them in different places. Where a SMILES comes first, the peptide text is derived from it. Bridges are numbered along the chain shown (N, C = ends). Where no end group is shown, it is not given here. [ ]: non-standard residue; d: D form. PEG 40 kDa = PEG (40 kDa) covalently attached to Cys; Aib = CC(C)(N)C(=O)O

What was measured:
Format in all cases: cell-based
glucagon receptor = molecular target: T1, glucagon receptor (Homo sapiens, UniProt P47871); experiment: cAMP synthesis functional assay (firefly luciferase reporter in HEK293 cells), glucagon receptor
T1 construct: expressed in transfected cells; host or cells: HEK293
T1 sequence (P47871 26-477): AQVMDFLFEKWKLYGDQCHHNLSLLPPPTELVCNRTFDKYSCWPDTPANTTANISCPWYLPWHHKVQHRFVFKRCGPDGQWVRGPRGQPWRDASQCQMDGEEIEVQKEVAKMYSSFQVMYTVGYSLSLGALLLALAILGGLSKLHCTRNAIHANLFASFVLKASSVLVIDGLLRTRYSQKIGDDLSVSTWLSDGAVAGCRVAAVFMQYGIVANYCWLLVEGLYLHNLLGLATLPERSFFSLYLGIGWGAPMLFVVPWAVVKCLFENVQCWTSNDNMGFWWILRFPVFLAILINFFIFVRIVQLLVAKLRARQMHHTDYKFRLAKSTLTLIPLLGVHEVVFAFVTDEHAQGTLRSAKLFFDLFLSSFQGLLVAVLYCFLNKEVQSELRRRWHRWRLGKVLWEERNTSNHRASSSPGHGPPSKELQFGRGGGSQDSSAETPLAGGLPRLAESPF

[1] = tested on: glucagon receptor, GLP-1 receptor or GIP receptor; experiment: Agonist profile across receptors assigned from the cAMP reporter assay data; settings: assigned from the in vitro EC50 data of Tables 1-4
GLP-1 receptor = molecular target: T2, GLP-1 receptor (Homo sapiens, UniProt P43220); experiment: cAMP synthesis functional assay (firefly luciferase reporter in HEK293 cells), GLP-1 receptor
T2 construct: expressed in transfected cells; host or cells: HEK293
T2 sequence (P43220 24-463, species assumed): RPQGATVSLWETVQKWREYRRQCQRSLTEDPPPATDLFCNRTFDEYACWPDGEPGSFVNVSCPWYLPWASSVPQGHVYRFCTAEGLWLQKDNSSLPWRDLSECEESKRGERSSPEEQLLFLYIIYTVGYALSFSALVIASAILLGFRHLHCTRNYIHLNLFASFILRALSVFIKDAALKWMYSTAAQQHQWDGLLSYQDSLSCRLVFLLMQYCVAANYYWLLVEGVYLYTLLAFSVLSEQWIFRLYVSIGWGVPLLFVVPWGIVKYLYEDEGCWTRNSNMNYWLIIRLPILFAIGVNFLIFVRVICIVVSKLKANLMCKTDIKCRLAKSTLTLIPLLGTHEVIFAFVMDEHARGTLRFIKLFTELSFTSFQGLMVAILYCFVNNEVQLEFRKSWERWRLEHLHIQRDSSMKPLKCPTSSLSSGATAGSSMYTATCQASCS

GIP receptor = molecular target: T3, GIP receptor (Homo sapiens, UniProt P48546); experiment: cAMP synthesis functional assay (firefly luciferase reporter in HEK293 cells), GIP receptor
T3 construct: expressed in transfected cells; host or cells: HEK293
T3 sequence (P48546 22-466): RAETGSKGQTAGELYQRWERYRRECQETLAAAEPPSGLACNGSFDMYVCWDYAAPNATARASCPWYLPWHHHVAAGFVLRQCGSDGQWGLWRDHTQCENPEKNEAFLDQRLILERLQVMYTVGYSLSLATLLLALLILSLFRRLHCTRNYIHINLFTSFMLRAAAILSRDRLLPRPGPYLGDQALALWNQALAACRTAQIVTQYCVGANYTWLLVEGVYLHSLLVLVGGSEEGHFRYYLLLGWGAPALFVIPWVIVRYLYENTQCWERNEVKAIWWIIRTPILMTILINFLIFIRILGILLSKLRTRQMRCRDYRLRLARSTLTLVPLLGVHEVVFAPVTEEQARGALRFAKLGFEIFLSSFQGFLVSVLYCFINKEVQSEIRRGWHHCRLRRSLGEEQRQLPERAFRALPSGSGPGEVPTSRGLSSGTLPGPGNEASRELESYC

[2] = Glucagon Receptor EC50, cAMP luciferase reporter assay as in Example 16
[3] = relative to the standard (Std.) EC50 of the same run
[4] = GLP-1 Receptor EC50, cAMP luciferase reporter assay as in Example 16
[5] = GIP Receptor EC50, cAMP luciferase reporter assay as in Example 16
[6] = Table 1, relative to the native hormone of the indicated receptor

EC50 (glucagon receptor; read-out: Glucagon Receptor EC50, Table 1) [nM] | EC50 (GLP-1 receptor; read-out: GLP-1 Receptor EC50, Table 1) [nM] | EC50 (GIP receptor; read-out: GIP Receptor EC50, Table 1) [nM] | Molecule | EC50 (glucagon receptor; [2]) [nM] | Glucagon Receptor relative activity (glucagon receptor; [3]) [%] | receptor activity profile (glucagon / GLP-1 / GIP agonism) [1] | EC50 (GLP-1 receptor; [4]) [nM] | GLP-1 Receptor relative activity (GLP-1 receptor; [3]) [%] | EC50 (GIP receptor; [5]) [nM] | GIP Receptor relative activity (GIP receptor; [3]) [%] | Glucagon Receptor relative activity (glucagon receptor; [6]) [%] | GLP-1 Receptor relative activity (GLP-1 receptor; [6]) [%] | GIP Receptor relative activity (GIP receptor; [6]) [%] | Glucagon Receptor relative activity (glucagon receptor; Table 2) [%] | GLP-1 Receptor relative activity (GLP-1 receptor; Table 2) [%] | GIP Receptor relative activity (GIP receptor; Table 2) [%]
– | – | – | CCCCCCCCCCCCCC(=O)NCCCC[C@H](NC(=O)[C@H](CO)NC(=O)[C@@H]1CCCN1C(=O)[C@@H]1CCCN1C(=O)[C@@H]1CCCN1C(=O)[C@H](C)NC(=O)CNC(=O)[C@H](CO)NC(=O)[C@H](CO)NC(=O)[C@@H]1CCCN1C(=O)CNC(=O)CNC(=O)[C@H](C)NC(=O)[C@H](CC(C)C)NC(=O)[C@H](CC(C)C)NC(=O)[C@H](Cc1c[nH]c2ccccc12)NC(=O)[C@H](CS)NC(=O)[C@@H](NC(=O)[C@H](Cc1ccccc1)NC(=O)[C@H](CCC(=O)O)NC(=O)C(C)(C)NC(=O)[C@H](C)NC(=O)[C@H](C)NC(=O)[C@H](CCC(N)=O)NC(=O)[C@H](CCCCN)NC(=O)[C@H](CC(=O)O)NC(=O)[C@H](CC(C)C)NC(=O)[C@H](Cc1ccc(O)cc1)NC(=O)[C@@H](NC(=O)[C@H](CO)NC(=O)[C@H](Cc1ccc(O)cc1)NC(=O)[C@H](CC(=O)O)NC(=O)[C@H](CO)NC(=O)[C@@H](NC(=O)[C@H](Cc1ccccc1)NC(=O)[C@@H](NC(=O)CNC(=O)[C@H](CCC(N)=O)NC(=O)C(C)(C)NC(=O)[C@@H](N)Cc1ccc(O)cc1)[C@@H](C)O)[C@@H](C)O)[C@@H](C)CC)C(C)C)C(N)=O [mt-286] | 0.0612 | 84.80 | exhibited activity at the GIP, GLP-1, and glucagon receptors | 0.0225 | 52.00 | 0.0159 | 68.55 | – | – | – | – | – | –
– | – | – | CC[C@H](C)[C@@H]1NC(=O)[C@@H](NC(=O)[C@H](CC(=O)O)NC(=O)[C@H](CC(C)C)NC(=O)[C@H](Cc2ccc(O)cc2)NC(=O)[C@H](CCCCN)NC(=O)[C@H](CO)NC(=O)[C@H](Cc2ccc(O)cc2)NC(=O)[C@H](CC(=O)O)NC(=O)[C@H](CO)NC(=O)[C@@H](NC(=O)[C@H](Cc2ccccc2)NC(=O)[C@@H](NC(=O)CNC(=O)[C@H](CCC(N)=O)NC(=O)[C@H](CO)NC(=O)[C@@H](N)Cc2ccc(O)cc2)[C@@H](C)O)[C@@H](C)O)CCC(=O)NCCCC[C@@H](C(=O)N[C@@H](CC(=O)O)C(=O)N[C@@H](Cc2ccccc2)C(=O)N[C@H](C(=O)N[C@@H](CC(N)=O)C(=O)N[C@@H](Cc2c[nH]c3ccccc23)C(=O)N[C@@H](CC(C)C)C(=O)N[C@@H](CC(C)C)C(=O)N[C@@H](C)C(=O)NCC(=O)NCC(=O)N2CCC[C@H]2C(=O)N[C@@H](CO)C(=O)N[C@@H](CO)C(=O)NCC(=O)N[C@@H](C)C(=O)N2CCC[C@H]2C(=O)N2CCC[C@H]2C(=O)N2CCC[C@H]2C(=O)N[C@@H](CO)C(N)=O)C(C)C)NC(=O)[C@H](CCC(N)=O)NC(=O)[C@H](Cc2c[nH]cn2)NC1=O [mt-116] (H-YSQGTFTSDYSKYLDEIHQKDFVNWLLAGGPSSGAPPPS-NH2; lactam 16-20; N-terminus assumed) | – | – | exemplary GIP/glucagon co-agonist peptides | – | – | – | – | 18.68 | 1.07 | 7.62 | – | – | –
1.27 | 0.26 | 0.473 | mt-179: glucagon analog peptide, C-terminal amide; called GIP/glucagon co-agonist and triagonist (Y[Aib]QGTFISDYSIYLDEQAAKEFVC(PEG 40 kDa)WLLAG-NH2; lactam 16-20) | – | – | exemplary GLP-1/GIP/glucagon triagonist peptides | – | – | – | – | 2.92 | 7.50 | 3.74 | – | – | –
– | – | – | CCCCCCCCCCCCCCCC(=O)NCCCC[C@H](NC(=O)[C@H](CO)NC(=O)[C@@H]1CCCN1C(=O)[C@@H]1CCCN1C(=O)[C@@H]1CCCN1C(=O)[C@H](C)NC(=O)CNC(=O)[C@H](CO)NC(=O)[C@H](CO)NC(=O)[C@@H]1CCCN1C(=O)CNC(=O)CNC(=O)[C@H](C)NC(=O)[C@H](CC(C)C)NC(=O)[C@H](CC(C)C)NC(=O)[C@H](Cc1c[nH]c2ccccc12)NC(=O)[C@H](CS)NC(=O)[C@@H](NC(=O)[C@H](Cc1ccccc1)NC(=O)[C@H](CCC(=O)O)NC(=O)C(C)(C)NC(=O)[C@H](C)NC(=O)[C@H](C)NC(=O)[C@H](CCC(N)=O)NC(=O)[C@H](CCCCN)NC(=O)[C@H](CC(=O)O)NC(=O)[C@H](CC(C)C)NC(=O)[C@H](Cc1ccc(O)cc1)NC(=O)[C@@H](NC(=O)[C@H](CO)NC(=O)[C@H](Cc1ccc(O)cc1)NC(=O)[C@H](CC(=O)O)NC(=O)[C@H](CO)NC(=O)[C@@H](NC(=O)[C@H](Cc1ccccc1)NC(=O)[C@@H](NC(=O)CNC(=O)[C@H](CCC(N)=O)NC(=O)C(C)(C)NC(=O)[C@@H](N)Cc1ccc(O)cc1)[C@@H](C)O)[C@@H](C)O)[C@@H](C)CC)C(C)C)C(N)=O [mt-287] | 0.0187 | 277.54 | exhibited activity at the GIP, GLP-1, and glucagon receptors | 0.0124 | 94.35 | 0.0093 | 117.20 | – | – | – | – | – | –
– | – | – | CCCCCCCCCCCCCCCC(=O)NCCCC[C@H](NC(=O)[C@H](CO)NC(=O)[C@@H]1CCCN1C(=O)[C@@H]1CCCN1C(=O)[C@@H]1CCCN1C(=O)[C@H](C)NC(=O)CNC(=O)[C@H](CO)NC(=O)[C@H](CO)NC(=O)[C@@H]1CCCN1C(=O)CNC(=O)CNC(=O)[C@H](C)NC(=O)[C@H](CC(C)C)NC(=O)[C@H](CC(C)C)NC(=O)[C@H](Cc1c[nH]c2ccccc12)NC(=O)[C@H](CS)NC(=O)[C@@H](NC(=O)[C@H](Cc1ccccc1)NC(=O)[C@H](CCC(=O)O)NC(=O)C(C)(C)NC(=O)[C@H](C)NC(=O)[C@H](C)NC(=O)[C@H](CCC(N)=O)NC(=O)[C@H](CCCCN)NC(=O)[C@H](CC(=O)O)NC(=O)[C@H](CC(C)C)NC(=O)[C@H](Cc1ccc(O)cc1)NC(=O)[C@@H](NC(=O)[C@H](CO)NC(=O)[C@H](Cc1ccc(O)cc1)NC(=O)[C@H](CC(=O)O)NC(=O)[C@H](CO)NC(=O)[C@@H](NC(=O)[C@H](Cc1ccccc1)NC(=O)[C@@H](NC(=O)CNC(=O)[C@H](CCC(=O)O)NC(=O)C(C)(C)NC(=O)[C@@H](N)Cc1ccc(O)cc1)[C@@H](C)O)[C@@H](C)O)[C@@H](C)CC)C(C)C)C(N)=O [mt-296] | 0.421 | 11.34 | exhibited activity at the GIP, GLP-1, and glucagon receptors | 0.0124 | 130.65 | – | 211.69 | – | – | – | – | – | –
– | – | – | CC[C@H](C)[C@H](NC(=O)[C@H](CO)NC(=O)[C@H](Cc1ccc(O)cc1)NC(=O)[C@H](CC(=O)O)NC(=O)[C@H](CO)NC(=O)[C@@H](NC(=O)[C@H](Cc1ccccc1)NC(=O)[C@@H](NC(=O)CNC(=O)[C@H](CCC(N)=O)NC(=O)C(C)(C)NC(=O)[C@@H](N)Cc1ccc(O)cc1)[C@@H](C)O)[C@@H](C)O)C(=O)N[C@@H](Cc1ccc(O)cc1)C(=O)N[C@@H](CC(C)C)C(=O)N[C@@H](CC(=O)O)C(=O)NC(C)(C)C(=O)N[C@@H](CCC(N)=O)C(=O)N[C@@H](C)C(=O)N[C@@H](C)C(=O)NC(C)(C)C(=O)N[C@@H](CCC(=O)O)C(=O)N[C@@H](Cc1ccccc1)C(=O)N[C@H](C(=O)N[C@@H](CC(N)=O)C(=O)N[C@@H](Cc1c[nH]c2ccccc12)C(=O)N[C@@H](CC(C)C)C(=O)N[C@@H](CC(C)C)C(=O)N[C@@H](C)C(=O)NCC(=O)NCC(=O)N1CCC[C@H]1C(=O)N[C@@H](CO)C(=O)N[C@@H](CO)C(=O)NCC(=O)N[C@@H](C)C(=O)N1CCC[C@H]1C(=O)N1CCC[C@H]1C(=O)N1CCC[C@H]1C(=O)N[C@@H](CO)C(=O)N[C@@H](CS)C(N)=O)C(C)C [mt-250] (H-Y[Aib]QGTFTSDYSIYLD[Aib]QAA[Aib]EFVNWLLAGGPSSGAPPPSC-NH2; N-terminus assumed) | – | – | exhibited activities of glucagon/GLP-1/GIP triagonists | – | – | – | – | – | – | – | 6.30 | 63.64 | 30.65
